Laboratory results: patent US7473433B2, “Pulmonary delivery of polyene antifungal agents” (priority 2000, dated 2009)
≈ marks a conversion by molar mass, not a printed value. Where two headings read alike, the source gives them in different places.

What was measured:
[1] = Apparent solubility of AmB in pH-adjusted methanol; type: physicochemical; settings: for Solubility: 0 °C, MeOH
Method: (§1) In an attempt to reduce the extent of chemical degradation of amphotericin, while also finding solution conditions under which amphotericin B was reasonably soluble (e.g., to an extent greater than about 1 mg/mL), solubility experiments were conducted. The experiments were performed at room temperature for the first 2 hour while adjusting for solution pH. After the amphotericin B was completely dissolved, the samples were transferred to a 4° C. refrigerator for further chemical stability analysis. Table 7 summarizes the formulation details and apparent solubilities at specific pH conditions.
Additional solubility of amphotericin B and stability of the representative formulation, R0140, was investigated. The solubility of amphotericin at pH 5 and at pH 4.7 was investigated; additionally, the chemical stability of amphotericin B at pH 4.8 was further examined. In these experiments, samples were placed in an ice bath during the formulation preparation.

[2] = type: physicochemical; settings: for % AmB pH 3: MeOH pH 3, ice bath; for % AmB pH 4: MeOH pH 4, ice bath
Excerpt: The “extent of degradation” of a polyene is the percentage of polyene contained in the dry powder composition determined to be chemically modified from the intact starting material, as determined by a suitable chemical assay (e.g., NMR, HPLC, etc.); 100% of the polyene remaining chemically intact during the spray drying process represents an extent of degradation of 0%.
• Amphotericin B (Spectrum, New Brunswick, N.J.; Alapharma) • Nystatin (Spectrum, New Brunswick, N.J.) • Methanol dehydrated, HPLC grade (EM Industries, Gibbstown, N.J.) • Sodium Hydroxide, 50% (J. T. Baker, Phillipsburg, N.J.) • L-Leucine (Aldrich) • Hydrochloric Acid (J. T. Baker, Phillipsburg, N.J.) • Sodium Deoxycholate (Spectrum, New Brunswick, N.J.) Methods • Reverse Phase-HPLC • RP-HPLC analysis was performed on a Waters 2690HPLC system with a Waters Detector 996 (Skywalker, Inhale No.101232). The system was equipped with either a Vydac C-18 column or an YMC ODC-AQ™ C-18 column. Samples were eluted with a gradient mobile phases consisted of 10 mM sodium acetate buffer (mobile phase A) at pH 5 and CAN (mobile phase B). The flow rate was maintained at 1.0 ml/min, the detector wavelength was 383 nm, and the injection volume was 30μL (microliter). Stability Samples
as §1
Solutions were prepared as follows. Amphotericin B (AmB) was added to MeOH (3 mg AmB/mL) at either room temperature or in an ice bath. […] The chemical stability of AmB was determined by an HPLC assay as a function of time over 24 hours.

[3] = cited from earlier work
[4] = Solubility of polyenes and excipients in single solvents; type: physicochemical
Method: The solubility of amphotericin and excipients/additives of interest was determined in various solvents in an attempt to find a solvent system suitable for spray drying (i.e., having a sufficiently high vapor pressure) and capable of dissolving both amphotericin and any added excipients at an extent greater than about 10 mg/mL solvent. Although active agents can be spray-dried as suspensions, having the formulation components dissolved in solution provides resulting particles having a homogeneous composition (i.e., when comparing one particle to another particle)—that is to say, each particle in the composition has approximately the same composition and distribution of formulation components.
Amphotericin B is soluble in water at pHs lower than 3 and higher than 10, but only to a limited extent (0.2 mg/ml) —making the volume of solvent required for spray drying under these conditions too large to be reasonably handled. Thus, the following solubilities were experimentally determined to find a single (non-mixed) solvent system for spray drying representative amphotericin B and nystatin formulations.

C[C@@H]1[C@H](O)[C@@H](C)/C=C/C=C/C=C/C=C/C=C/C=C/C=C/[C@H](O[C@@H]2O[C@H](C)[C@@H](O)[C@H](N)[C@@H]2O)C[C@@H]2O[C@](O)(C[C@@H](O)C[C@@H](O)[C@H](O)CC[C@@H](O)C[C@@H](O)CC(=O)O[C@H]1C)C[C@H](O)[C@H]2C(=O)O [Amphotericin B]
Solubility ([1]; pH 4.7, organic solvent or mixture, pH 4.7, in ice): 3400 µg/mL (≈ 3.68 mM)
Solubility ([1]; pH 5, organic solvent or mixture, pH 5.0, in ice): ~3000 µg/mL (≈ 3.25 mM)
solubility at 2 h ([1]; organic solvent or mixture, in MeOH, room temperature, pH of the formulation 4.4, 6.9 or 9.6): 2900 µg/mL (≈ 3.14 mM)
% AmB pH 3 ([2]; 4 hr): 93%
% AmB pH 3 ([2]; 18.5 hr): 90%
% AmB pH 3 ([2]; 26 hr): 85%
% AmB pH 3 ([2]; […]): 95%
% AmB pH 4 ([2]; 1 hr): 94%
% AmB pH 4 ([2]; 4 hr): 96%
% AmB pH 4 ([2]; 18.5 hr): 97%
% AmB pH 4 ([2]; 26 hr): 93%
% AmB ([2]; MeOH pH 4.8, in ice bath, 4 hr): 99%
% AmB ([2]; MeOH pH 4.8, in ice bath, 6 hr): 97%
% AmB ([2]; MeOH pH 4.8, in ice bath, 8 hr): 94%
% AmB ([2]; MeOH pH 4.8, in ice bath, 24 hr): 97%
% AmB ([2]; MeOH pH 4.8, in ice bath, […]): 97%
% AmB ([2]; MeOH pH 4.8, room temperature, 4 hr): 85%
% AmB ([2]; MeOH pH 4.8, room temperature, 6 hr): 83%
% AmB ([2]; MeOH pH 4.8, room temperature, 8 hr): 84%
% AmB ([2]; MeOH pH 4.8, room temperature, 24 hr): 78%
% AmB ([2]; MeOH pH 4.8, room temperature, […]): 89%
AmB (%) ([2]; MeOH solution, T = 8 hr (4° C. after first 2 hr)): about 92%
Main Peak % ([2]; MeOH, pH 4.8, in ice): 92.0%
AmB (%) ([2]; MeOH, pH 4.8, in ice, during formulation preparation): 97%
Solubility in water ([3]; water at pH 6 to 7): insoluble
Solubility in water ([3]; water at pHs lower than 3 and higher than 10): 200 µg/mL (≈ 0.216 mM)

C[C@@H]1[C@H](O)[C@@H](C)/C=C/C=C/CC/C=C/C=C/C=C/C=C/C(O[C@H]2O[C@H](C)[C@@H](O)[C@H](N)[C@@H]2O)CC2O[C@](O)(CC(O)C(O)CCC(O)CC(O)CC(O)CC(=O)O[C@H]1C)CC(O)C2C(=O)O (stereo partly drawn) [Nystatin]
Solubility ([4]; Acetone): 0.1 mg compound/g solvent
Solubility ([4]; Chloroform): 0.7 mg compound/g solvent
Solubility ([4]; DI Water): 1.1 mg compound/g solvent
Solubility ([4]; Ethanol): 0.8 mg compound/g solvent
Solubility ([4]; Ethyl Ether): 0.1 mg compound/g solvent
Solubility ([4]; Hexane): 0.0 mg compound/g solvent
Solubility ([4]; IP Acetate): 0.1 mg compound/g solvent
Solubility ([4]; IPA): 0.1 mg compound/g solvent
Solubility ([4]; Isobutyl Alcohol): 0.5 mg compound/g solvent
Solubility ([4]; Meth. Chloride): 3.9 mg compound/g solvent
Solubility ([4]; Methanol): 11.0 mg compound/g solvent
Solubility ([4]; Pet. Ether): 0.0 mg compound/g solvent
Solubility ([4]; THF): 1.6 mg compound/g solvent
